Peptide text beside a SMILES is read from it.
Experiments:
[1] = system: HepG2; test: Antiproliferative activity against human HepG2 cells under dark condition by CCK8 assay; type: functional, cell-based
[2] = system: HepG2; test: Antiproliferative activity against human HepG2 cells under 10 J/cm2 light irradiation at 660 nm by CCK8 assay; type: functional, cell-based; settings: HepG2, light or radiation study
[3] = system: Huh-7; test: Antiproliferative activity against human Huh-7 cells under dark condition by CCK8 assay; type: functional, cell-based
[4] = system: Huh-7; test: Antiproliferative activity against human Huh-7 cells under 10 J/cm2 light irradiation at 660 nm by CCK8 assay; type: functional, cell-based; settings: Huh-7, light or radiation study
[5] = system: MCF7; test: Antiproliferative activity against human MCF7 cells under dark condition by CCK8 assay; type: functional, cell-based
[6] = system: MCF7; test: Antiproliferative activity against human MCF7 cells under 10 J/cm2 light irradiation at 660 nm by CCK8 assay; type: functional, cell-based; settings: MCF7, light or radiation study
[7] = system: HeLa; test: Antiproliferative activity against human HeLa cells under dark condition by CCK8 assay; type: functional, cell-based
[8] = system: HeLa; test: Antiproliferative activity against human HeLa cells under 10 J/cm2 light irradiation at 660 nm by CCK8 assay; type: functional, cell-based; settings: light or radiation study
[9] = Antiproliferative activity against human HUVEC cells under dark condition by CCK8 assay; type: toxicity, cell-based
[10] = Antiproliferative activity against human HUVEC cells under 10 J/cm2 light irradiation at 660 nm by CCK8 assay; type: toxicity, cell-based
[11] = Partition coefficient, logP of compound; type: physicochemical; settings: octanol/water
[12] = Photostability of compound under 250 mW/cm2 light irradiation at 660 nm incubated for 10 mins by UV spectrophotometry; type: physicochemical; settings: 0.66 µM
[13] = Aggregation property of compound in PBS; type: physicochemical; settings: buffer
[14] = molecular target: chymotrypsin (Homo sapiens, UniProt P17538+P40313+Q6GPI1+Q99895); test: Stability of compound assessed as chymotrypsin (unknown origin)-mediated compound degradation in PBS at pH 7.4 by measuring half life; type: ADME, protein assay

For `C=Cc1c(C)c2cc3nc(c(CC(=O)O)c4[nH]c(cc5nc(cc1[nH]2)C(C)=C5CC)c(C)c4C(=O)NCCCC(=O)N[C@@H](CCCCN)C(=O)N[C@@H](CCCCN)C(=O)N[C@@H](CCCCN)C(=O)N[C@@H](CCCNC(=N)N)C(=O)N[C@@H](CC(C)C)C(=O)N[C@@H](CC(N)=O)C(=O)N[C@H](C(=O)NCC(=O)NCC(=O)N[C@H](C(=O)N[C@@H](Cc1ccc(O)cc1)C(=O)N[C@@H](Cc1ccccc1)C(=O)N[C@@H](CC(C)C)C(=O)N[C@H](C(=O)N[C@H](C(=O)N[C@@H](CCCNC(=N)N)C(=O)N[C@@H](CCC(N)=O)C(=O)O)[C@@H](C)O)[C@@H](C)O)[C@@H](C)O)C(C)C)[C@@H](CCC(=O)O)[C@@H]3C` (HELM PEPTIDE1{[C=Cc1c(C)c2cc3nc(c(CC(=O)O)c4[nH]c(cc5nc(cc1[nH]2)C(C)=C5CC)c(C)c4C(=O)[*:2])[C@@H](CCC(=O)O)[C@@H]3C].[O=C(CCCN[*:1])[*:2]].K.K.K.R.L.N.V.G.G.T.Y.F.L.T.T.R.Q}$$$$V2.0), the IC50 [1] was over 200000 nM, the IC50 [2] was 330 nM and the IC50 [3] was over 200000 nM. For the same compound, the IC50 [4] was 340 nM, the IC50 [5] was over 200000 nM and the IC50 [6] was 790 nM. For the same compound, the IC50 [7] was over 200000 nM, the IC50 [8] was 570 nM and the IC50 [9] was over 200000 nM. For the same compound, the IC50 [10] was 380 nM, the logP [11] was -0.5 and the Stability [12] was “Stable”. For the same compound, the Activity [13] was “Not Active” and the half-life [14] was 1.3 h.

In the case of `C=Cc1c(C)c2cc3nc(c(CC(=O)O)c4[nH]c(cc5nc(cc1[nH]2)C(C)=C5CC)c(C)c4C(=O)NCCCC(=O)N[C@@H](CCCNC(=N)N)C(=O)N[C@@H](CC(C)C)C(=O)N[C@@H](CC(N)=O)C(=O)N[C@H](C(=O)NCC(=O)NCC(=O)N[C@H](C(=O)N[C@@H](Cc1ccc(O)cc1)C(=O)N[C@@H](Cc1ccccc1)C(=O)N[C@@H](CC(C)C)C(=O)N[C@H](C(=O)N[C@H](C(=O)N[C@@H](CCCNC(=N)N)C(=O)N[C@@H](CCC(N)=O)C(=O)O)[C@@H](C)O)[C@@H](C)O)[C@@H](C)O)C(C)C)[C@@H](CCC(=O)O)[C@@H]3C` (HELM PEPTIDE1{[C=Cc1c(C)c2cc3nc(c(CC(=O)O)c4[nH]c(cc5nc(cc1[nH]2)C(C)=C5CC)c(C)c4C(=O)[*:2])[C@@H](CCC(=O)O)[C@@H]3C].[O=C(CCCN[*:1])[*:2]].R.L.N.V.G.G.T.Y.F.L.T.T.R.Q}$$$$V2.0), the IC50 [1] is reported as over 100000 nM, the IC50 [2] is reported as 310 nM and the IC50 [3] is reported as over 100000 nM. It also gave an IC50 [4] of 250 nM, an IC50 [5] of over 100000 nM and an IC50 [6] of 880 nM. For the same compound, the IC50 [7] was over 100000 nM, the IC50 [8] was 720 nM and the IC50 [9] was over 200000 nM. The IC50 [10] was 2100 nM, the logP [11] was 0.8 and the Stability [12] was “Stable”. The Activity [13] was “Active” and the half-life [14] was 2.4 h.

— ChEMBL document CHEMBL5537154, “Smart glypican-3-targeting peptide-chlorin e6 conjugates for targeted photodynamic therapy of hepatocellular carcinoma” (Eur J Med Chem, 2024)
